Laboratory results published in ChEMBL document CHEMBL1130281, “Structure-based design of a new bisintercalating anthracycline antibiotic” (1997).

How the values were obtained:
[1] = RI is the ratio of cytotoxicity against MCF-7/VP-16 cell line to that of MCF-7 cell line; type: functional, MCF7
MCF7 = assay: In vitro cytotoxicity against human breast carcinoma cell line (MCF-7); type: functional; conditions: read-out: ID50 (the source's name)
MCF7-VP = assay: In vitro cytotoxicity against multi drug resistant human breast carcinoma (MCF-7/VP-16) cell line; type: functional; conditions: read-out: ID50 (the source's name)

Compound | RI [1] | IC50 (MCF7) [µM] | IC50 (MCF7-VP) [µM]
COc1cccc2c1C(=O)c1c(O)c3c(c(O)c1C2=O)C[C@@](O)(C(C)=O)C[C@@H]3OC1CC(NCc2ccc(CNC3CC(O[C@H]4C[C@](O)(C(C)=O)Cc5c(O)c6c(c(O)c54)C(=O)c4c(OC)cccc4C6=O)OC(C)C3O)cc2)C(O)C(C)O1.Cl.Cl (some centres undefined) [BISANTHRACYCLINE (WP631)] | 0.5 | 4.8 | 2.5
COc1cccc2c1C(=O)c1c(O)c3c(c(O)c1C2=O)C[C@@](O)(C(=O)CO)C[C@@H]3O[C@H]1C[C@H](N)[C@H](O)[C@H](C)O1 [DOXORUBICIN] | – | – | 14.2
